In patent USRE47689E1, “Compounds for treating spinal muscular atrophy” (PTC Therapeutics, Inc., priority 2011, dated 2019):
Where two headings read alike, the source gives them in different places.

Key:
[1] = tested on: Smn protein; experiment: Smn protein assay in cultured cells (SMN HTRF); type: cell-based, human; settings: 48 hours; for maximum fold (Fold) increase of Smn protein: SMA patient fibroblast cells, 7-point concentration data, fold increase relative to vehicle control (SMN HTRF); for EC1.5x (concentration giving 1.5-fold Smn protein increase): SMA Type 1 patient fibroblast cells (GM03813), 7-point concentration curve, SMN HTRF, concentration producing 1.5 times Smn protein vs DMSO vehicle control, read-out: EC1.5x for Smn protein expression
Summary of the method: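 Smn in SMA fibroblast lysates, measured by anti-SMN HTRF after 48 h compound exposure; EC1.5x from fold change over vehicle.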

[2] = tested on: SMN2 minigene (full length SMN2 minigene mRNA containing SMN2 exon 7); experiment: SMN2 minigene mRNA splicing RT-qPCR assay in cultured cells; type: cell-based, human; settings: Homo sapiens, HEK293-H, read-out: EC1.5x for production of full length SMN2 mRNA
Summary of the method: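 Lysates → one-step RT-qPCR, minigene-specific primers (0.4 μM final) + GAPDH multiplex, 40 cycles. FL/GAPDH vs DMSO; EC1.5x, star-binned.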

[3] = HEK293H cells stably transfected with SMN2-A minigene, 24 hours, 7-point concentration curve, 1.5-fold relative to vehicle-treated cells

Row | melting point [°C] | SMILES | maximum fold (Fold) increase of Smn protein [1] | EC (1.5-fold) [2, 3] [µM] | EC1.5x (concentration giving 1.5-fold Smn protein increase) [1] [nM] | EC (1.5-fold) ([2]; 24 h) [µM]
1 | 236 to 238 | O=c1oc2cc(N3CCNCC3)ccc2cc1-c1cc2ccccn2n1 [Cpd 187, 7-(piperazin-1-yl)-3-(pyrazolo[1,5-a]pyridin-2-yl)-2H-chromen-2-one] | ** (fold increase between >1.2 and ≤1.35) | 0.3 to 1 |  | 
2 | 245 to 247 | CCCN1CCN(c2ccc3cc(-c4cn5cccc(Cl)c5n4)c(=O)oc3c2)CC1 [Compound 119, 3-(8-chloroimidazo[1,2-a]pyridin-2-yl)-7-(4-propylpiperazin-1-yl)-2H-chromen-2-one] | ** (fold increase between >1.2 and ≤1.35) | 0.3 to 1 |  | 
3 | 243 to 246 | Cc1cccn2cc(-c3cc4ccc(N5C[C@@H](C)N[C@@H](C)C5)cc4oc3=O)nc12 [Compound 136, 7-[(3R,5S)-3,5-dimethylpiperazin-1-yl]-3-(8-methylimidazo[1,2-a]pyridin-2-yl)-2H-chromen-2-one] | ** (fold increase between >1.2 and ≤1.35) | 1 to 3 |  | 
4 | 250 to 261 | O=c1oc2cc(N3CCNCC3)ccc2cc1-c1cn2cc(F)cnc2n1 [Compound 502, 3-(6-fluoroimidazo[1,2-a]pyrimidin-2-yl)-7-(piperazin-1-yl)-2H-chromen-2-one] | * (maximum fold increase of ≤1.2) | 1 to 3 |  | 
5 | 220 to 223 | Cc1ccc2nc(-c3cc4ccc(N(C)Cc5cccnc5)cc4oc3=O)cn2c1 [Compound 221, 3-(6-methylimidazo[1,2-a]pyridin-2-yl)-7-[methyl(pyridin-3-ylmethyl)amino]-2H-chromen-2-one] | * (maximum fold increase of ≤1.2) | 1 to 3 |  | 
6 | 186 to 188 | Cc1cn2cc(-c3cc4ccc(OCCN[C@@H](C)CO)cc4oc3=O)nc2c(C)n1 [Compound 947, 3-(6,8-dimethylimidazo[1,2-a]pyrazin-2-yl)-7-(2-{[(2S)-1-hydroxypropan-2-yl]amino}ethoxy)-2H-chromen-2-one] | **** (fold increase between >1.5 and ≤1.65) | < 0.1 | < 300 | 
7 | 165 to 168 | CCN(CC)C1CCN(c2ccc3cc(-c4cc5c(C)nc(C)cn5c4)c(=O)oc3c2)C1 (stereo not shown) [Compound 735, 7-[3-(diethylamino)pyrrolidin-1-yl]-3-(1,3-dimethylpyrrolo[1,2-a]pyrazin-7-yl)-2H-chromen-2-one] | **** (fold increase between >1.5 and ≤1.65) | < 0.1 | 300 to 1000 | 
8 | 212 to 216 | Cc1cn2cc(-c3cc4ccc(CCCN)cc4oc3=O)nc2c(C)n1 [Cpd 927, 7-(3-aminopropyl)-3-(6,8-dimethylimidazo[1,2-a]pyrazin-2-yl)-2H-chromen-2-one] | ** (fold increase between >1.2 and ≤1.35) | 1 to 3 |  | 
9 | 255 to 261 | Cc1cn2cc(-c3cc4ccc(NC5CCNCC5)cc4oc3=O)nc2c(C)n1 [Compound 562, 3-(6,8-dimethylimidazo[1,2-a]pyrazin-2-yl)-7-(piperidin-4-ylamino)-2H-chromen-2-one] | **** (fold increase between >1.5 and ≤1.65) | < 0.1 | < 300 | 
10 | 246 to 252 | Cc1ccn2cc(-c3cc4ccc(N5C[C@@H](C)N[C@@H](C)C5)cc4oc3=O)nc2n1 [Compound 225, 7-[(3R,5S)-3,5-dimethylpiperazin-1-yl]-3-(7-methylimidazo[1,2-a]pyrimidin-2-yl)-2H-chromen-2-one] | *** (fold increase between >1.35 and ≤1.5) | 0.3 to 1 |  | 
11 | 205 to 208 | CCN1CCN(c2ccc3cc(-c4cn5cc(C)ncc5n4)c(=O)oc3c2)C[C@@H]1C [Compound 627, 7-[(3S)-4-ethyl-3-methylpiperazin-1-yl]-3-(6-methylimidazo[1,2-a]pyrazin-2-yl)-2H-chromen-2-one] | ***** (fold increase >1.65) | < 0.1 | < 300 | 
12 | 225 to 230 | COc1ccn2cc(-c3cc4ccc(N5C[C@@H](C)N[C@@H](C)C5)cc4oc3=O)nc2c1 [Compound 432, 7-[(3R,5S)-3,5-dimethylpiperazin-1-yl]-3-(7-methoxyimidazo[1,2-a]pyridin-2-yl)-2H-chromen-2-one] | ** (fold increase between >1.2 and ≤1.35) | 1 to 3 |  | 
13 | 109 to 111 | COc1c(F)cc(F)cc1-c1cc2ccc(N3CCNCC3)cc2oc1=O [Compound 538, 3-(3,5-difluoro-2-methoxyphenyl)-7-(piperazin-1-yl)-2H-chromen-2-one] | * (maximum fold increase of ≤1.2) | 3 to 30 |  | 
14 | 233 to 240 | Cc1cc(F)c2nc(-c3cc4ccc(N5CCCN(C)CC5)cc4oc3=O)cn2c1 [Compound 355, 3-(8-fluoro-6-methylimidazo[1,2-a]pyridin-2-yl)-7-(4-methyl-1,4-diazepan-1-yl)-2H-chromen-2-one] | **** (fold increase between >1.5 and ≤1.65) | < 0.1 | 300 to 1000 | 
15 | 258 to 260 | O=c1oc2cc(N3CCNCC3)ccc2cc1-c1cn2ccncc2n1 [Cpd 456, 3-(imidazo[1,2-a]pyrazin-2-yl)-7-(piperazin-1-yl)-2H-chromen-2-one] | **** (fold increase between >1.5 and ≤1.65) | < 0.1 | 1000 to 3000 | 
16 | 177 to 180 | Cc1cn2cc(-c3cc4ccc(CCCNCc5ccccn5)cc4oc3=O)nc2c(C)n1 [Compound 935, 3-(6,8-dimethylimidazo[1,2-a]pyrazin-2-yl)-7-{3-[(pyridin-2-ylmethyl)amino]propyl}-2H-chromen-2-one] | **** (fold increase between >1.5 and ≤1.65) | 0.1 to 0.3 | 300 to 1000 | 

Row | SMILES | melting point [°C] | maximum fold (Fold) increase of Smn protein [1] | EC (1.5-fold) [2, 3] [µM] | EC1.5x (concentration giving 1.5-fold Smn protein increase) [1] [nM] | EC (1.5-fold) ([2]; 24 h) [µM]
17 | CN1CCN(c2ccc3cc(-c4ccn(C)n4)c(=O)oc3c2)CC1 [Compound 73, 7-(4-methylpiperazin-1-yl)-3-(1-methyl-1H-pyrazol-3-yl)-2H-chromen-2-one] | 183 to 186 | ** (fold increase between >1.2 and ≤1.35) |  |  | 3 to 30
18 | O=c1oc2cc(N3CCN4CCC3CC4)ccc2cc1-c1cn2cccnc2n1 [Compound 440, 7-(1,4-diazabicyclo[3.2.2]non-4-yl)-3-(imidazo[1,2-a]pyrimidin-2-yl)-2H-chromen-2-one] | > 300 | * (maximum fold increase of ≤1.2) |  |  | 1 to 3
19 | O=c1oc2cc(N3CCNCC3)ccc2cc1-c1cccc(F)c1 [Compound 26, 3-(3-fluorophenyl)-7-(piperazin-1-yl)-2H-chromen-2-one] | 148 to 150 | * (maximum fold increase of ≤1.2) |  |  | 1 to 3
